Counter-ions that a name gives are not always drawn.
Columns and labels:
NaV1.6 [1] = molecular target: T1, NaV1.6 (Homo sapiens (Human), UniProt Q9UQD0); test: Sodium Influx Assay (Flux), NaV1.6; assay type: cell-based; settings: Trex HEK293 cells, ANG2 dye, inactivated state;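 also: Tetracycline-induced cells, compounds applied for one hour at room temperature with modulators holding channels open, IC50 from percent inhibition of sodium influx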
NaV1.6 [2] = molecular target: T1, NaV1.6; test: Electrophysiological Assay (EP), patch voltage clamp, NaV1.6; assay type: cell-based; settings: HEK-293 cells, whole-cell patch clamp;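 also: sodium current recorded at ambient temperature, channels held inactivated then briefly repolarized to −150 mV for 20 ms before a test pulse, control currents in 0.5% DMSO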
NaV1.1 [3] = molecular target: T2, NaV1.1 (Homo sapiens (Human), UniProt P35498); test: Sodium Influx Assay (Flux), NaV1.1; assay type: cell-based; settings: Trex HEK293 cells, ANG2 dye, inactivated state;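 also: channels co-expressed with human β1 subunit and held open by modulators, cells exposed to compounds for one hour at room temperature, IC50 from percent inhibition of influx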
NaV1.1 [4] = molecular target: T2, NaV1.1; test: Electrophysiological Assay (EP), patch voltage clamp, NaV1.1; assay type: cell-based; settings: HEK-293 cells, whole-cell patch clamp;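 also: sodium current block measured at ambient temperature, holding at fully inactivating potential, 20 ms repolarization to −150 mV before test pulse, versus 0.5% DMSO control currents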
NaV1.5 = NaV1.5 (Homo sapiens (Human), UniProt Q14524); test: Sodium Influx Assay (Flux), NaV1.5; settings: read-out: Flux NaV1.5 IC50; Trex HEK293 cells, ANG2 dye, inactivated state
Chain of NaV1.5 (Q14524 other isoform, or with tags, fused parts or gaps): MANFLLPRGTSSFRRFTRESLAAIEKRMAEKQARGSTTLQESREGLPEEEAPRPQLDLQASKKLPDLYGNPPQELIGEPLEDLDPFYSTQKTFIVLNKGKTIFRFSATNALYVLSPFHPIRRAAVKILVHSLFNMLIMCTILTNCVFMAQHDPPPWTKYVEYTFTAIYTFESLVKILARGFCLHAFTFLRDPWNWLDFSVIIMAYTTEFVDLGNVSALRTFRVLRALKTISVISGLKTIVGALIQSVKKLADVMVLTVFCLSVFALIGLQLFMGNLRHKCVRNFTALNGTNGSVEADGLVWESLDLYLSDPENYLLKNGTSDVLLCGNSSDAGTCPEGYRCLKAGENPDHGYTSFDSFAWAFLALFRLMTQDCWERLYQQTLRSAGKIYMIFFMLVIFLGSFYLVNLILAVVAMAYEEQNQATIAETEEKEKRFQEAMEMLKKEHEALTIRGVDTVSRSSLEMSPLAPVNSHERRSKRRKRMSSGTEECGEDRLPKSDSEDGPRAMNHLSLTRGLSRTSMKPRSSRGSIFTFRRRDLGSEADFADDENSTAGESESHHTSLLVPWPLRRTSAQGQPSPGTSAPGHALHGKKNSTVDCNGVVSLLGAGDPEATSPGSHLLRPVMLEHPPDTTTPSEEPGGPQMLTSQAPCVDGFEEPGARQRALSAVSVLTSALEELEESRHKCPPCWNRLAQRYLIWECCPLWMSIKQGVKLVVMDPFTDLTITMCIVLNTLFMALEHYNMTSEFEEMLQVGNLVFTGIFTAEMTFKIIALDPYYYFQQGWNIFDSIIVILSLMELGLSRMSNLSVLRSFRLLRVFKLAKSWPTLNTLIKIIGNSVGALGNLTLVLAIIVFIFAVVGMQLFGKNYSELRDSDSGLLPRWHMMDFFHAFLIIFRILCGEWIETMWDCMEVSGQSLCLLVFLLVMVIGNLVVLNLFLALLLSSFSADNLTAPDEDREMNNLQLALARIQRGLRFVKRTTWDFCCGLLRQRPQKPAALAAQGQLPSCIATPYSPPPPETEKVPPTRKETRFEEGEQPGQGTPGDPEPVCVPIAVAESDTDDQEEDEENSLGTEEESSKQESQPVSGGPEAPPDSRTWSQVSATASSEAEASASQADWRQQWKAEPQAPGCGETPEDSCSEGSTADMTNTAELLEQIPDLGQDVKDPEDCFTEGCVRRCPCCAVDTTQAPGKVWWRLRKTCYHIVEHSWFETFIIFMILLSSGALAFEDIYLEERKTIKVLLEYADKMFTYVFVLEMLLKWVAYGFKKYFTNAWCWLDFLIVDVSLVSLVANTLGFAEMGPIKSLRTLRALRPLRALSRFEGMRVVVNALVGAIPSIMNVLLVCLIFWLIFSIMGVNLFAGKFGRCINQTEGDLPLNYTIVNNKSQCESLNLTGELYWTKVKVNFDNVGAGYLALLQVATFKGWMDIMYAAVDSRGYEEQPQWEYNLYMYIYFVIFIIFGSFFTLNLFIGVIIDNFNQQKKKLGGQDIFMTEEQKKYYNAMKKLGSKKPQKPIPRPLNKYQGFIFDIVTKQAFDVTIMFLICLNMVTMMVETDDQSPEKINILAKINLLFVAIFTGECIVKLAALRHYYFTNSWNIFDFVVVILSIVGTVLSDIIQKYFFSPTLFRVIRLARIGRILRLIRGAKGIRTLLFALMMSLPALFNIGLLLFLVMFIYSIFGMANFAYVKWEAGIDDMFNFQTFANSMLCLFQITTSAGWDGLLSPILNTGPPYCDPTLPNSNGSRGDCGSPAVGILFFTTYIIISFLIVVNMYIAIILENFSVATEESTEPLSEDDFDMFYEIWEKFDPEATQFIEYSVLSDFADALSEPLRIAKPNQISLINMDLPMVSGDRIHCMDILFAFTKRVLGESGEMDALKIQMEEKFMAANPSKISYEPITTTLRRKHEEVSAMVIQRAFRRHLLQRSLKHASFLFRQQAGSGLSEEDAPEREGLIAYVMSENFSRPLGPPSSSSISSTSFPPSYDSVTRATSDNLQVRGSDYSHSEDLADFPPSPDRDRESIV

T1 sequence (Q9UQD0 whole entry): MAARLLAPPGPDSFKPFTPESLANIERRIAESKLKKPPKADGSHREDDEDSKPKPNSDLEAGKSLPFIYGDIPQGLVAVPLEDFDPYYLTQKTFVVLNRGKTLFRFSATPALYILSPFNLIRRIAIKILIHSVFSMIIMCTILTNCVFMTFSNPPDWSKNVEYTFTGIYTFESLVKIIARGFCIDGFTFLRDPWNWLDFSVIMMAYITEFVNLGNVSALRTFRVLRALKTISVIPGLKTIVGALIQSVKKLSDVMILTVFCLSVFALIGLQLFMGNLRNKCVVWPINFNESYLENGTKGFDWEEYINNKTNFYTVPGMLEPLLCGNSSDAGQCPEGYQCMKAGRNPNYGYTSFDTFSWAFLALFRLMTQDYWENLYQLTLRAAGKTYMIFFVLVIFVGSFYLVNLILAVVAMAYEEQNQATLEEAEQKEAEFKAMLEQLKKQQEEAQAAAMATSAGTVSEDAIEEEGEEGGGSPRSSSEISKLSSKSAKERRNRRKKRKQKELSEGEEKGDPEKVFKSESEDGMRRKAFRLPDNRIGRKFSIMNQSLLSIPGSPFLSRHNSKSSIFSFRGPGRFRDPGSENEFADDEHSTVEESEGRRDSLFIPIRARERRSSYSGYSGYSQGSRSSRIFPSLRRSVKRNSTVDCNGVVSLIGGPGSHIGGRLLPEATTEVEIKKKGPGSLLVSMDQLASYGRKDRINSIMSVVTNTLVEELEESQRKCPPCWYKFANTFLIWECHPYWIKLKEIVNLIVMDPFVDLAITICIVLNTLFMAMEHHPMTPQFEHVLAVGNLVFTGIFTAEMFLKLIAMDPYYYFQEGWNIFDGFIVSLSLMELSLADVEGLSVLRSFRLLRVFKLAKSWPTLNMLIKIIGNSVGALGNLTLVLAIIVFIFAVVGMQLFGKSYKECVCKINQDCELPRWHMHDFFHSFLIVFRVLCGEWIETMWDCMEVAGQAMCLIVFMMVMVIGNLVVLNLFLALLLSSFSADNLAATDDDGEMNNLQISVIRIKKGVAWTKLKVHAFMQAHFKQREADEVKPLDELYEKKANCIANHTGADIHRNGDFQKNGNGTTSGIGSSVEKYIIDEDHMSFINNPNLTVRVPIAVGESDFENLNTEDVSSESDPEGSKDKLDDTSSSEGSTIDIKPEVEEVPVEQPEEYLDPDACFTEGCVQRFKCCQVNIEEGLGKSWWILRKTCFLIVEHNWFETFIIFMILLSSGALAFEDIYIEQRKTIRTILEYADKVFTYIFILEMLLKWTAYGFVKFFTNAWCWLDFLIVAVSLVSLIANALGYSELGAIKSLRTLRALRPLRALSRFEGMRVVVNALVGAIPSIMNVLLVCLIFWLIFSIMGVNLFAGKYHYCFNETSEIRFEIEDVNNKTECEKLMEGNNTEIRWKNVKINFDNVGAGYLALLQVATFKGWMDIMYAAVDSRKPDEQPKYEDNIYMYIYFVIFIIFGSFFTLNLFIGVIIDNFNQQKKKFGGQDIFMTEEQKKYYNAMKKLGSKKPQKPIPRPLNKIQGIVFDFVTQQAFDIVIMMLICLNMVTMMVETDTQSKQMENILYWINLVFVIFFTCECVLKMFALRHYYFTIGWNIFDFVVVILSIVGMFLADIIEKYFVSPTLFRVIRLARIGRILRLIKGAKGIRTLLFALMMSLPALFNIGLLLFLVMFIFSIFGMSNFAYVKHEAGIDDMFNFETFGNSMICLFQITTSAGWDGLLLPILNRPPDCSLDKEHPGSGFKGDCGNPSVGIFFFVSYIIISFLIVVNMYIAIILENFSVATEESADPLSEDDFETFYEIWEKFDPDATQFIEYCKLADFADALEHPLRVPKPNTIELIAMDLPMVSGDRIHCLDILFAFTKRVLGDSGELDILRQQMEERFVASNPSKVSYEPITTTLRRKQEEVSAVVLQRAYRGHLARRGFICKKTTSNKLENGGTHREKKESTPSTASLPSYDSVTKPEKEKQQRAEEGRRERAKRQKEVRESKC

Structure (SMILES)	IC50 (NaV1.6 [1]) [nM]	IC50 (NaV1.6 [2]) [nM]	IC50 (NaV1.1 [3]) [nM]	IC50 (NaV1.1 [4]) [nM]	IC50 (NaV1.5) [nM]
O=S(=O)(Nc1cscn1)c1cc(Cl)c(NCc2cccc3ccncc23)cc1F [Example 96, 5-chloro-2-fluoro-4-((isoquinolin-8-ylmethyl)amino)-N-(thiazol-4-yl)benzenesulfonamide 2,2,2-trifluoroacetate]	239	98	12600	10000	16000
O=S(=O)(Nc1cscn1)c1cc(Cl)c(NCc2ccccc2CN2CCC2)cc1F [Example 19, 4-((2-(azetidin-1-ylmethyl)benzyl)amino)-5-chloro-2-fluoro-N-(thiazol-4-yl)benzenesulfonamide 2,2,2-trifluoroacetate]	425	130	11700	10000	18500
O=S(=O)(Nc1nccs1)c1ccc(NC2(c3ccccc3)COC2)c(Cl)c1 [Example 103, 3-chloro-4-((3-phenyloxetan-3-yl)amino)-N-(thiazol-2-yl)benzenesulfonamide]	2910	796	16600	10000	28800
O=S(=O)(Nc1nccs1)c1cc(Cl)c(OCc2ccccc2CN2CCC2)cc1F [Example 136, 4-((2-(azetidin-1-ylmethyl)benzyl)oxy)-5-chloro-2-fluoro-N-(thiazol-2-yl)benzenesulfonamide]	384	41	19600	10000	23700
O=S(=O)(Nc1nccs1)c1cc(Cl)c(NC(CN2CCOCC2)c2ccccc2)cc1F (stereo not shown) [Example 74, 5-chloro-2-fluoro-4-((2-morpholino-1-phenylethyl)amino)-N-(thiazol-2-yl)benzenesulfonamide 2,2,2-trifluoroacetate]	521	52	2520	1850	30000
C[C@H](Oc1cc(F)c(S(=O)(=O)Nc2nccs2)cc1Cl)c1ccccc1Cl [Example 117, (S)-5-chloro-4-(1-(2-chlorophenyl)ethoxy)-2-fluoro-N-(thiazol-2-yl)benzenesulfonamide]	530	55	5890	6780	6220
C[C@H](Nc1cc(F)c(S(=O)(=O)Nc2nccs2)cc1Cl)C1CCCCC1 [Example 42, (S)-5-chloro-4-((1-cyclohexylethyl)amino)-2-fluoro-N-(thiazol-2-yl)benzenesulfonamide]	3030	305	5650	6770	14400
O=S(=O)(Nc1nccs1)c1cc(Cl)c(N[C@@H](CN2CCC2)c2ccccc2)cc1F [Example 66, (R)-4-((2-(azetidin-1-yl)-1-phenylethyl)amino)-5-chloro-2-fluoro-N-(thiazol-2-yl)benzenesulfonamide 2,2,2-trifluoroacetate]	1010	1110	908	10000	30000
O=S(=O)(Nc1cccc(F)n1)c1cc(Cl)c(NCc2c(F)cccc2CN2CCC2)cc1F [Example 138, 4-((2-(azetidin-1-ylmethyl)-6-fluorobenzyl)amino)-5-chloro-2-fluoro-N-(6-fluoropyridin-2-yl)benzenesulfonamide]	151	43	5760	10000	9850
C[C@H](Oc1ccc(S(=O)(=O)Nc2nccs2)c(F)c1Cl)c1ccccc1F [Example 10, (S)-3-chloro-2-fluoro-4-(1-(2-fluorophenyl)ethoxy)-N-(thiazol-2-yl)benzenesulfonamide]	461	128	1630	5470	2350
O=S(=O)(Nc1cscn1)c1c(F)cc(NCc2c(Cl)cccc2CN2CC3(COC3)C2)cc1F [Example 295, 4-((2-((2-oxa-6-azaspiro[3.3]heptan-6-yl)methyl)-6-chlorobenzyl)amino)-2,6-difluoro-N-(thiazol-4-yl)benzenesulfonamide formate]	383	42	12100	10000	30000
CC[C@H](Nc1ccc(S(=O)(=O)Nc2nccs2)cc1)c1ccccc1 [Example 84, (S)-4-((1-phenylpropyl)amino)-N-(thiazol-2-yl)benzenesulfonamide]			2410	10000	

More lines, main results first:

IC50 (NaV1.6 [1]) [nM]	IC50 (NaV1.6 [2]) [nM]	IC50 (NaV1.1 [3]) [nM]	IC50 (NaV1.1 [4]) [nM]	Structure (SMILES)	IC50 (NaV1.5) [nM]
814	462	9570	10000	C[C@H](Oc1cc(F)c(S(=O)(=O)Nc2cscn2)cc1Cl)c1ccccc1F [Example 101, (S)-5-chloro-2-fluoro-4-(1-(2-fluorophenyl)ethoxy)-N-(thiazol-4-yl)benzenesulfonamide]	4660
175	57	1870	2520	C[C@H](Nc1cc(F)c(S(=O)(=O)Nc2nccs2)cc1F)c1ccccc1F [Example 25, (S)-2,5-difluoro-4-((1-(2-fluorophenyl)ethyl)amino)-N-(thiazol-2-yl)benzenesulfonamide]	10300
582	153	4430	4510	O=S(=O)(Nc1nccs1)c1ccc(NC2(c3ccccc3)CCC2)c(Cl)c1 [Example 104, 3-chloro-4-((1-phenylcyclobutyl)amino)-N-(thiazol-2-yl)benzenesulfonamide]	6280
347	130	1270	2090	O=S(=O)(Nc1nccs1)c1cc(Cl)c(NC2(c3ccc(F)cc3)CC2)cc1F [Example 44, 5-chloro-2-fluoro-4-((1-(4-fluorophenyl)cyclopropyl)amino)-N-(thiazol-2-yl)benzenesulfonamide]	30000
948	239	3850	10000	CC[C@H](Nc1cc(F)c(S(=O)(=O)Nc2cscn2)cc1Cl)c1ccccc1 [Example 89, (S)-5-chloro-2-fluoro-4-((1-phenylpropyl)amino)-N-(thiazol-4-yl)benzenesulfonamide]	9090
244	112	18200	10000	C[C@H](Nc1ccc(S(=O)(=O)Nc2ccncn2)c(F)c1Cl)c1ccccc1Cl [Example 191, (S)-3-chloro-4-((1-(2-chlorophenyl)ethyl)amino)-2-fluoro-N-(pyrimidin-4-yl)benzenesulfonamide]	20000
237	39	1540	4410	C[C@H](Nc1ccc(S(=O)(=O)Nc2nccs2)cc1Cl)c1ccccc1F [Example 79, (S)-3-chloro-4-((1-(2-fluorophenyl)ethyl)amino)-N-(thiazol-2-yl)benzenesulfonamide]	2550
317	76	27300	10000	COc1cccc(CN2CCC2)c1CNc1cc(F)c(S(=O)(=O)Nc2cscn2)c(F)c1 [Example 209, 4-((2-(azetidin-1-ylmethyl)-6-methoxybenzyl)amino)-2,6-difluoro-N-(thiazol-4-yl)benzenesulfonamide 2,2,2-trifluoroacetate]	30000
